Test results reported in patent US20250304549A1, “HYDROXYAMIDE DERIVATIVE AND USE THEREOF” (SICHUAN HUIYU PHARMACEUTICAL CO., LTD., priority 2022, published 2025).
Counter-ions that a name gives are not always drawn.

How the values were obtained:
HDAC8 = HDAC8 (Homo sapiens (Human), UniProt Q9BY41); assay: In vitro enzyme inhibition assay - HDAC (HDAC-Glo I/II), HDAC8; assay type: biochemical; conditions: read-out: HDAC IC50 (nM) HDAC 8
Procedure, shortened: (§1)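 Eight compound concentrations (5-fold gradient; 1 mM DMSO stock) were assayed by HDAC-Glo I/II luminescence. IC50 was obtained by four-parameter fitting.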

HDAC1 = HDAC1 (Homo sapiens (Human), UniProt Q13547); assay: In vitro enzyme inhibition assay - HDAC (HDAC-Glo I/II), HDAC1; assay type: biochemical; conditions: read-out: HDAC IC50 (nM) HDAC 1
Method: 2. In Vitro Enzyme Inhibition Assay—HDAC
The effect of the compound on the enzymatic activity of pan-HDAC and two isoforms (HDAC1 and HDAC8) was examined using the HDAC-Glo I/II Assay and Screening System assay to assess the level of inhibition of HDAC protease activity and selectivity in each isoform. The proteins and detection reagents were from the HDAC-Glo™ I/II Assay and Screening System (Promega). A 1 mM stock solution of the compound was prepared in DMSO and diluted in a 5-fold gradient to create a series of 8 concentrations, and a specific volume of the highest concentration was diluted 25 times with HDAC Buffer to obtain 4× working solution of the compound. […] The 384-well plate was then read on a multifunctional microplate reader, with the Luminescence channel selected to record Luminescence values (RLU). The inhibition rate was calculated using the following formula: […]
Note: ‘Negative’ refers to the group without the inhibitor; ‘Blank’ refers to the group without the enzyme.
The IC50 value was calculated by fitting the inhibition rate by GraphPad Prism software, employing log (inhibitor) vs. response-Variable Slope (four parameters) model.

NCI-H69 cells = assay: In vitro cell inhibition assay - NCI-H69 cell proliferation (CellTiter-Glo); assay type: cell-based; conditions: Homo sapiens, NCI-H69, H69 small cell lung cancer cell proliferation
Procedure, shortened: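 Luminescence from CellTiter-Glo reagent served as the viability read-out after cells were exposed to compounds for 7 days at 37° C. Eight concentrations in a 5-fold series were tested in medium with 20% FBS. Inhibition was normalised to untreated and cell-free wells before IC50 fitting.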

pan-HDAC = assay: In vitro enzyme inhibition assay - HDAC (HDAC-Glo I/II), pan-HDAC; assay type: biochemical
Procedure, shortened: as §1

LSD1 = LSD1 (Homo sapiens (Human), UniProt O60341); assay: In vitro enzyme inhibition assay - LSD1 (HTRF); assay type: biochemical
NCI-H526 cells = assay: In vitro cell inhibition assay - NCI-H526 cell proliferation (CellTiter-Glo); assay type: cell-based; conditions: Homo sapiens, NCI-H526, 120 h, H526 small cell lung cancer cell proliferation, 5 days
Procedure, shortened: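 NCI-H526 cells plated at 1×10^3 per well overnight, then treated with 8 concentrations (5-fold dilutions) in RPMI-640 with 10% FBS for 5 days at 37° C., 5% CO2. Viable cells quantified by CellTiter-Glo luminescence; IC50 fitted from inhibition rates relative to no-inhibitor and no-cell controls.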

NCI-H1417 cells = assay: In vitro cell inhibition assay - H1417 cell proliferation (CellTiter-Glo); assay type: cell-based; conditions: Homo sapiens, NCI-H1417, H1417 small cell lung cancer cell proliferation
Procedure, shortened: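 Cells exposed to 8 compound concentrations (5-fold dilutions) in BEGM with 10% FBS for 7 days at 37° C., 5% CO2. Viable cells measured by CellTiter-Glo luminescence; inhibition versus no-inhibitor and no-cell controls, IC50 fitted.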

Chain of HDAC8 (Q9BY41 whole entry): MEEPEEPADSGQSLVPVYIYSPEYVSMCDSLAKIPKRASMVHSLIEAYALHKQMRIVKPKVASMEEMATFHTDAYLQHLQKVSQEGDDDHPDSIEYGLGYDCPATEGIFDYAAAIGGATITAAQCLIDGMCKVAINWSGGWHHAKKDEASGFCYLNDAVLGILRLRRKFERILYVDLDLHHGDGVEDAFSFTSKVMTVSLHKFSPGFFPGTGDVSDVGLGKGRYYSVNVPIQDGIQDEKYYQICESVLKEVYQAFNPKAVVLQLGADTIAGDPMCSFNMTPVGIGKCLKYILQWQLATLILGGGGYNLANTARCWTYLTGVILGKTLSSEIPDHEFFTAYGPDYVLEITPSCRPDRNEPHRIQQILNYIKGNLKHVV
Chain of HDAC1 (Q13547 whole entry): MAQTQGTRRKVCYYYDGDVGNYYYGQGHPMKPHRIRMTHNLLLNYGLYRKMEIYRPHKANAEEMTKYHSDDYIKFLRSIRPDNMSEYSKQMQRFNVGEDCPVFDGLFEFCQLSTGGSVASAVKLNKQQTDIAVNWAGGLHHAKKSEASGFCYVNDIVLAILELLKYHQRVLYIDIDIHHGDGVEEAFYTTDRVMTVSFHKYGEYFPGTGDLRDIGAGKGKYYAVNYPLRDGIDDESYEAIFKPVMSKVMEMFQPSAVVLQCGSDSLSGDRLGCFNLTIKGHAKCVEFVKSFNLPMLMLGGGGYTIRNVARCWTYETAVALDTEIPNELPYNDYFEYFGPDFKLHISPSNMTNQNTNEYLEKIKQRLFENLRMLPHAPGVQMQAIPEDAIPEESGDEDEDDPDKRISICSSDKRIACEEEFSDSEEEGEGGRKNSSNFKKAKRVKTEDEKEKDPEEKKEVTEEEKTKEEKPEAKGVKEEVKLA

Row | Compound | IC50 (HDAC8) | IC50 (HDAC1) | IC50 (NCI-H69 cells) | IC50 (pan-HDAC) | IC50 (LSD1) | IC50 (NCI-H526 cells) | IC50 (NCI-H1417 cells)
1 | CC(C)(O)COc1ccc(-c2cnc(N3CCC(NCc4ccc(CCC(=O)NO)cc4)CC3)c(C#N)c2-c2ccc(C#N)c(F)c2)cc1O [Example 188, 3-(4-(((1-(3-Cyano-4-(4-cyano-3-fluorophenyl)-5-(3-hydroxy-4-(2-hydroxy-2-methylpropoxy)phenyl)pyridin-2-yl)piperidin-4-yl)amino)methyl)phenyl)-N-hydroxypropanamide formate] | 198 nM | 3.06 nM | 29.7 nM | 5.07 nM | 0.3 nM | 80.4 nM | 1.74 nM
2 | N#Cc1ccc(-c2c(-c3ccc(/C=C/C(=O)NO)c(O)c3)cnc(N3CCC(N)CC3)c2C#N)cc1F [Example 62, (E)-3-(4-(6-(4-Aminopiperidin-1-yl)-5-cyano-4-(4-cyano-3-fluorophenyl)pyridin-3-yl)-2-hydroxyphenyl)-N-hydroxyacrylamide hydrochloride] | 3190 nM | 17.3 nM | 3220 nM | 5.53 nM | 0.49 nM | 1210 nM | 9.86 nM
3 | COc1ccc(-c2cnc(N3CCC(NCc4ccc(CCC(=O)NO)c(F)c4)CC3)c(C#N)c2-c2ccc(C#N)c(F)c2)cc1O [Example 201, 3-(4-((1-(3-Cyano-4-(4-cyano-3-fluorophenyl)-5-(3-hydroxy-4-methoxyphenyl)pyridin-2-yl)piperidin-4-yl)amino)methyl)-2-fluorophenyl)-N-hydroxypropanamide formate] | 438 nM | 4.81 nM | 56.4 nM | 7.71 nM | 0.22 nM | 20.5 nM | 3.33 nM
4 | COc1ccc(-c2cnc(N3CCC(C)(NCc4cnc(/C=C/C(=O)NO)nc4)CC3)c(C#N)c2-c2ccc(C#N)c(F)c2)cc1O [Example 206, (E)-3-(5-(((1-(3-Cyano-4-(4-cyano-3-fluorophenyl)-5-(3-hydroxy-4-methoxyphenyl)pyridin-2-yl)-4-methylpiperidin-4-yl)amino)methyl)pyrimidin-2-yl)-N-hydroxyacrylamide formate] | 32.5 nM | 32.9 nM | 94.7 nM | 11.5 nM | 2.03 nM | 106 nM | 6.21 nM
5 | COc1ccc(-c2cnc(N3CCC(NCc4ccc(/C=C/C(=O)NO)cc4)CC3)c(CC#N)c2-c2ccc(C#N)c(F)c2)cc1O [Example 233, (E)-3-(4-(((1-(4-(4-cyano-3-fluorophenyl)-3-(cyanomethyl)-5-(3-hydroxy-4-methoxyphenyl)pyridin-2-yl)piperidin-4-yl)amino)methyl)phenyl)-N-hydroxyacrylamide formate] | 42.1 nM | 0.43 nM | 3.81 nM | 2.23 nM | 1.76 nM | 8.35 nM | 10.2 nM
6 | CC(C)(O)COc1ccc(-c2cnc(N3CCC(NCc4cnc(/C=C/C(=O)NO)nc4)CC3)c(C#N)c2-c2ccc(C#N)c(F)c2)cc1O [Example 187, (E)-3-(5-(((1-(3-Cyano-4-(4-cyano-3-fluorophenyl)-5-(3-hydroxy-4-(2-hydroxy-2-methylpropoxy)phenyl)pyridin-2-yl)piperidin-4-yl)amino)methyl)pyrimidin-2-yl)-N-hydroxyacrylamide formate] | 15.5 nM | 1.98 nM | 14.8 nM | 3.71 nM | 4.11 nM | 20.9 nM | 4.89 nM
7 | CC(C)(O)COc1ccc(-c2cnc(N3CCC(NCc4ccc(/C=C/C(=O)NO)nc4)CC3)c(C#N)c2-c2ccc(C#N)c(F)c2)cc1O [Example 199, (E)-3-(5-((1-(3-Cyano-4-(4-cyano-3-fluorophenyl)-5-(3-hydroxy-4-(2-hydroxy-2-methylpropoxy)phenyl)pyridin-2-yl)piperidin-4-yl)amino)methyl) pyridin-2-yl)-N-hydroxyacrylamide formate] | 33.9 nM | 1.92 nM | 9.24 nM | 2.77 nM | 0.54 nM | 4.05 nM | 2.78 nM
8 | COc1ccc(-c2cnc(N3CCC(NC(C)c4ccc(/C=C/C(=O)NO)cc4)CC3)c(C#N)c2-c2ccc(C#N)c(F)c2)cc1O (stereo not drawn) [Example 210, (E)-3-(4-(1-((1-(3-Cyano-4-(4-cyano-3-fluorophenyl)-5-(3-hydroxy-4-methoxyphenyl)pyridin-2-yl)piperidin-4-yl)amino)ethyl)phenyl)-N-hydroxyacrylamide formate] | 456 nM | 4.44 nM | 15.1 nM | 2.5 nM | 1.13 nM | 5.86 nM | 3.53 nM
9 | COc1ccc(-c2cnc(N3CCC(NC(C)(C)c4ccc(/C=C/C(=O)NO)cc4)CC3)c(C#N)c2-c2ccc(C#N)c(F)c2)cc1O [Example 179, (E)-3-(4-(2-((1-(3-Cyano-4-(4-cyano-3-fluorophenyl)-5-(3-hydroxy-4-methoxyphenyl)pyridin-2-yl)piperidin-4-yl)amino)propan-2-yl)phenyl)-N-hydroxyacrylamide formate] | 374 nM | 1.74 nM | 2.75 nM | 3.1 nM | 100 nM | 4.44 nM | 3.66 nM
10 | N#Cc1ccc(-c2c(-c3ccc(N4CCOCC4)c(O)c3)cnc(N3CCC(NCc4ccc(/C=C/C(=O)NO)cc4)CC3)c2C#N)cc1F [Example 203, (E)-3-(4-(((1-(3-Cyano-4-(4-cyano-3-fluorophenyl)-5-(3-hydroxy-4-morpholinophenyl)pyridin-2-yl)piperidin-4-yl)amino)methyl)phenyl-N-hydroxyacrylamide formate] | 25.3 nM | 1.58 nM | 9.38 nM | 1.39 nM | 1.03 nM | 12.3 nM | 1.99 nM
11 | COc1ccc(-c2cnc(N3CCC(NCc4ccc(/C=C/C(=O)NO)cc4)CC3)c(C#N)c2-c2ccc(C#N)nc2)cc1O [Example 208, (E)-3-(4-(((1-(3′,6-Dicyano-5′-(3-hydroxy-4-methoxyphenyl)-[3,4′-bipyridin]-2′-yl)piperidin-4-yl)amino)methyl)phenyl)-N-hydroxyacrylamide] | 17.2 nM | 1.74 nM | 4.62 nM | 1.13 nM | 0.73 nM | 3.82 nM | 2.2 nM
12 | CC(C)(O)COc1ccc(-c2cnc(N3CCC(NCc4ccc(OCC(=O)NO)cc4)CC3)c(C#N)c2-c2ccc(C#N)c(F)c2)cc1O [Example 192, 2-(4-(((1-(3-cyano-4-(4-cyano-3-fluorophenyl)-5-(3-hydroxy-4-(2-hydroxy-2-methylpropoxy)phenyl)pyridin-2-yl)piperidin-4-yl)amino)methyl)phenoxy)-N-hydroxyacetamide formate] | 64.9 nM | 1.49 nM | 28 nM | 2.75 nM | 0.45 nM | 82.1 nM | 1.98 nM
13 | COc1ccc(-c2cnc(N3CCC(NCc4ccc(/C=C/C(=O)NO)cc4)CC3)c(C#N)c2-c2cnc(C#N)c(OC)c2)cc1O [Example 243, (E)-3-(4-(((1-(3′,6-Dicyano-5′-(3-hydroxy-4-methoxyphenyl)-5-methoxy-[3,4′-bipyridin]-2′-yl)piperidin-4-yl)amino)methyl)phenyl)-N-hydroxyacrylamide hydrochloride] |  | 0.6 nM | 3.24 nM | 1.74 nM | 13.6 nM | 10.6 nM | 10.5 nM
